Assay results published in patent US8163901B2, “Amide derivatives as ion-channel ligands and pharmaceutical compositions and methods of using the same” (Evotec AG, priority 2008, dated 2012).

What was measured:
Format in all cases: cell-based
hVR1 [1] = molecular target: T1, hVR1 (Homo sapiens, UniProt Q8NER1); test: Determination of pA2 values against capsaicin stimulation (Ca2+ imaging, Schild analysis)
T1 construct: R710-07 (T-REx host cell line); host or cells: T-REx System cell line, called 'human keratinocyte cell line' and 'HEK 293 cells'
Experimental: Changes in the fluorescence signal (λex=470-495 nm, λem=515-575 nm) are monitored throughout the experiment before agonist addition and for at least 2 min after agonist addition (enough time for the fluorescence response to reach and then decline from the absolute maximum, agonist-induced signal attained). For each well, final relative fluorescence units (RFUs) are calculated as the difference between the maximum fluorescence signal obtained in the experiment after agonist addition and the signal level seen at baseline before agonist, but after antagonist, addition (the absolute minimum level of fluorescence signal observed in the 10 seconds prior to agonist addition). […] Data are fit to an ideal curve utilizing the 4-parameter sigmoid curve-fit function in GraphPad Prism software (version 4, GraphPad Software, Inc., San Diego, Calif., USA) from which an EC50 value is obtained. […] For each antagonist, at least three concentrations are tested. Dose Ratio values are then used to make a standard Schild plot—log [antagonist concentration] plotted against log [DR−1], see Kenakin reference above for theoretical background and method. A linear regression curve-fit is then performed on these plotted points. […] If these conditions are not met, then the antagonist is rerun in a pA2 assay using different antagonist concentrations until the above conditions are met.

hVR1 [2] = molecular target: T1, hVR1; test: Calcium uptake assay (FLIPR), inhibition of capsaicin-induced calcium influx
Experimental: (§1) Functional activity of compounds against the VR1 receptor was determined by measuring changes in intracellular calcium in HEK 293 cells expressing hVR1. Compounds were examined for their ability to inhibit agonist-induced calcium influx. Relative levels of [Ca^2+] were monitored in a 96-well format using a calcium-sensitive fluorescence dye and a FLIPR TETRA, Molecular Devices.
(§2) Cells that express high levels of VR1 were obtained by generation of a cell line from human keratinocytes with heterologous expression of VR1 under control of an inducible promoter. Specifically, cells expressing human VR1 under the control of the human cytomegalovirus immediate-early (CMV) promoter and two tetracycline operator 2 (TetO2) sites were made using the T-REx System (Invitrogen, Carlsbad, Calif., USA). Details and methods concerning this system are published (Hum. Gene Ther. 9, pp. 1939-1950, 1998; Annu. Rev. Microbiol. 48, pp. 345-369, 1994; Mol. Biol. 169, pp. 707-'721, 1983). Human VR1 was subcloned into the T-REx System pcDNA5/TO vector (Invitrogen Cat# V1033-20) which was transfected into the T-REx System human keratinocyte cell line (Invitrogen Cat# R710-07) from which a stable cell line was established which expresses VR1 after induction by exposure to tetracycline or doxycycline (Hum. Gene Ther. 9, pp. 1939-1950, 1998; instructions that come with purchase of products noted above). Cells were maintained in a CO2 incubator (5% CO2) at 37° C. in culture medium containing DMEM with phenol red (Mediatech Cat #: 15-017-CV) supplemented with 10% heat-inactivated Fetal Bovine Serum, 5% Penicillin-streptomycin (Mediatech Cat #: 30-002-CI), 5% Glutamax® (L-Alanyl-L-Glutamine, Mediatech Cat #: 25-015-CI), 200 μg/ml hygromycin (Mediatech #:30-240-CR), 0.5 μg/ml blasticidin (Invitrogen #46-1120)).
(§3) For assay preparation, cells expressing human VR1 as described above were plated in 96-well plates (Becton Dickinson [BD] poly-D-lysine coated 96-well plates, cat #356692) at 55,000 cells per well in culture media (described above) that also contained 1 ug/ml doxycycline. Plated cells were then placed in an incubator (5% CO2) and incubated for 20-26 hours at 37° C., until the cells had grown to near confluency. Media was then aspirated from cells and 50 uL of dye-containing buffer (from Molecular Devices FLIPR Calcium 4 Assay kit, cat# R8141) was added to each well. Cells were then left in the dark at room temperature for 1.5-2 hours. Cell plates were then placed in the FLIPR TETRA (Molecular Devices, CA, USA). Test compounds and agonists were added to wells using the liquid handling capability of the FLIPR TETRA. Calcium responses of the cells were monitored by fluorescence readout of dye signal. Test compounds in saline (130 mM NaCl, 17 g/L sucrose, 1.8 g/L glucose, 8.8 mM HEPES, 3 mM KCl, 0.60 mM MgCl, 1.0 mM CaCl2; adjust to pH 7.4 using NaOH; 0.03% BSA added on the day of the experiment), or vehicle control in saline, were pre-incubated at the desired final concentrations in the dark at room temperature for 2 or 30 minutes with cells already containing the above mentioned dye buffer (dye solution was diluted 1:1 in culture wells with saline containing 2× the final concentration of test compound). […] Another agonist was protons via a low pH solution (saline solution described above plus 10 mM citric acid buffered to pH 5.7 with HCl instead of buffering to a neutral pH with NaOH as done for normal saline). Compounds were tested at various concentration ranges, depending upon potency of compound. After the 2 minute or 30 minute compound pre-treatment, treatment solution was then added to cells by adding a volume of treatment solution equal to the pretreatment solution already on the cells.

hVR1 [3] = molecular target: T1, hVR1; test: Calcium uptake assay (FLIPR), inhibition of low pH (proton)-induced calcium influx; conditions: agonist protons, low pH solution pH 5.7; cells expressing hVR1
Experimental: as §1, §2
as §3, with “compound). Compound IC50 experiments were run using an agonist concentration at or near the EC50 of the agonist.” for “compound).”, “cells. […]” for “cells.”

T1 sequence (Q8NER1 whole entry): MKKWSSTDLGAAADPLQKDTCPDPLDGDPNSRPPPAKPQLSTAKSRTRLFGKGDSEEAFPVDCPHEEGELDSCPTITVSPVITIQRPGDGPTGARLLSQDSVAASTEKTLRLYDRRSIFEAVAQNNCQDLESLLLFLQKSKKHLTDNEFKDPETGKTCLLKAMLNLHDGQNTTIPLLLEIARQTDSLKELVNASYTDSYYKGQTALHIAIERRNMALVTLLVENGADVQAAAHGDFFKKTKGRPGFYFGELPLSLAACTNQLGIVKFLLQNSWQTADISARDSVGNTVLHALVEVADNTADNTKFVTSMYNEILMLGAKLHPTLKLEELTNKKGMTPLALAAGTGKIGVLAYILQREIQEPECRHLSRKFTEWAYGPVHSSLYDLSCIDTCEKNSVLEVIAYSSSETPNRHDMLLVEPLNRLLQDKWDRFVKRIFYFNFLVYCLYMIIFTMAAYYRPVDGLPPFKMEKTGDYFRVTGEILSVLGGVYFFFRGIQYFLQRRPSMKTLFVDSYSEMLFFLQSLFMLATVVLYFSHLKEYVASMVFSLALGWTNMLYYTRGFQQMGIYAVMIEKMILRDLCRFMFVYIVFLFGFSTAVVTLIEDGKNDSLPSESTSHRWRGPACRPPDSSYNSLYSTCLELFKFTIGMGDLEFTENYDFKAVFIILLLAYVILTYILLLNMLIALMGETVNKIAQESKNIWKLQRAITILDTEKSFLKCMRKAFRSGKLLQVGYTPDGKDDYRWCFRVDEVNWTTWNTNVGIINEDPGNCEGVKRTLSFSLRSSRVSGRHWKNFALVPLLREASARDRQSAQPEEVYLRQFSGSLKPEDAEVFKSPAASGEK

Row | Compound | Kb (hVR1 [1]) [nM] | IC50 (hVR1 [2]) [nM] | IC50 (hVR1 [3]) [nM] | inhibition at 1 µM (hVR1 [2]) [%]
1 | C[C@@H](NC(=O)[C@@H]1COc2cc(C(F)(F)F)ccc2O1)c1ccc2[nH]ncc2c1 [Compound 25, (S)-6-Trifluoromethyl-2,3-dihydro-benzo[1,4]dioxine-2-carboxylic acid 1[(R)-1-(1H-indazol-5-yl)-ethyl]-amide] | 188 | 150 | – | –
2 | CC(NC(=O)[C@H]1COc2cc(C(F)(F)F)ccc2O1)c1ccc2[nH]ncc2c1 (stereo partly drawn) [Compound 13, (R)-6-Trifluoromethyl-2,3-dihydro-benzo[1,4]dioxine-2-carboxylic acid [1-(1H-indazol-5-yl)-ethyl]-amide] | 37.4 | 64 | – | –
3 | CC(C)(C)c1ccc2c(c1)OC(C(=O)Nc1cnc3sc(CO)nc3c1)CO2 (centres unmarked) [Compound 8, 7-tert-Butyl-2,3-dihydro-benzo[1,4]dioxine-2-carboxylic acid (2-hydroxymethyl-thiazolo[5,4-b]pyridin-6-yl)-amide] | 14.5 | – | 8 | –
4 | C[C@@H](NC(=O)[C@@H]1CCc2nc(C(C)(C)C(F)(F)F)ccc2C1)c1cnn2c1OCCC2 [Compound 20, (R)-2-(2,2,2-Trifluoro-1,1-dimethyl-ethyl)-5,6,7,8-tetrahydro-quinoline-6-carboxylic acid [(R)-1-(6,7-dihydro-5H-pyrazolo[5,1-b][1,3]oxazin-3-yl)-ethyl]-amide] | – | 310 | – | –
5 | CC(NC(=O)C1CCc2nc(C(C)(C)C(F)(F)F)ccc2C1)c1ccc2[nH]ncc2c1 (centres unmarked) [Compound 10, 2-(2,2,2-Trifluoro-1,1-dimethyl-ethyl)-5,6,7,8-tetrahydro-quinoline-6-carboxylic acid [1-(1H-indazol-5-yl)-ethyl]-amide] | 4.32 | 8 | – | –
6 | O=C(Nc1cnc2c(c1)COCC2)[C@H]1COc2cc(C(F)(F)F)ccc2O1 [Compound 17, (R)-6-Trifluoromethyl-2,3-dihydro-benzo[1,4]dioxine-2-carboxylic acid (7,8-dihydro-5H-pyrano[4,3-b]pyridin-3-yl)-amide] | – | 140 | – | –
7 | CC(NC(=O)[C@H]1COc2cc(C(C)(C)C)ccc2O1)c1ccc2[nH]ncc2c1 (single isomer, unassigned) [Compound 7] | 16.1 | 29 | 226 | –
8 | CC(C)(C)c1ccc2c(c1)OCC(C(=O)NCc1ccnc3ccccc13)O2 (centres unmarked) [Compound 1, 6-tert-butyl-N-(quinolin-4-ylmethyl)-2,3-dihydrobenzo[b][1,4]dioxine-2-carboxamide] | – | 36 | 240 | –
9 | CC(C)(c1ccc2c(n1)CC[C@@H](C(=O)Nc1cnc3ccccc3c1)C2)C(F)(F)F [Compound 21, (R)-2-(2,2,2-Trifluoro-1,1-dimethyl-ethyl)-5,6,7,8-tetrahydro-quinoline-6-carboxylic acid quinolin-3-ylamide] | 22.9 | 33 | 40 | –
10 | O=C(NCc1ccnc2ccccc12)C1=Cc2cc(Br)ccc2OC1 [Compound 3, 6-Bromo-2H-chromene-3-carboxylic acid (quinolin-4-ylmethyl)-amide] | – | – | 128 | –
11 | C[C@@H](NC(=O)[C@H]1CCc2nc(C(C)(C)C(F)(F)F)ccc2C1)c1cnn2c1OCCC2 [Compound 22, (S)—N—((R)-1-(6,7-dihydro-5H-pyrazolo[5,1-b][1,3]oxazin-3-yl)ethyl)-2-(1,1,1-trifluoro-2-methylpropan-2-yl)-5,6,7,8-tetrahydroquinoline-6-carboxamide] | 59.5 | 76 | – | –
12 | O=C(NCc1ccnc2ccccc12)C1=Cc2cc(OC(F)(F)F)ccc2OC1 [Compound 4, 6-Trifluoromethoxy-2H-chromene-3-carboxylic acid (quinolin-4-ylmethyl)-amide] | – | – | 108 | –
13 | O=C(NCc1ccnc2ccccc12)C1=Cc2cc(Cl)ccc2OC1 [Compound 2, 6-Chloro-2H-chromene-3-carboxylic acid (Quinolin-4-ylmethyl)-amide] | – | – | 143 | –
14 | O=C(Nc1cnc2sc(CO)nc2c1)[C@H]1COc2cc(C(F)(F)F)ccc2O1 [Compound 16, (R)-6-Trifluoromethyl-2,3-dihydro-benzo[1,4]dioxine-2-carboxylic acid (2-hydroxymethyl-thiazolo[5,4-b]pyridin-6-yl)-amide] | 422 | – | 571 | –
15 | CC(NC(=O)[C@@H]1COc2cc(C(C)(C)C)ccc2O1)c1ccc2[nH]ncc2c1 (single isomer, unassigned) [Compound 6] | – | 103 | – | –
16 | CC1(C(=O)Nc2cnc3sc(CO)nc3c2)CCc2nc(C(C)(C)C(F)(F)F)ccc2C1 (centres unmarked) [Compound 24, 6-Methyl-2-(2,2,2-trifluoro-1,1-dimethyl-ethyl)-5,6,7,8-tetrahydro-quinoline-6-carboxylic acid (2-hydroxymethyl-thiazolo[5,4-b]pyridin-6-yl)-amide] | 69.2 | – | 121 | –
17 | C[C@@H](NC(=O)[C@H]1COc2cc(C(F)(F)F)ccc2O1)c1ccc2[nH]ncc2c1 [Compound 26, (R)-6-Trifluoromethyl-2,3-dihydro-benzo[1,4]dioxine-2-carboxylic acid [(R)-1-(1H-indazol-5-yl)-ethyl]-amide] | 22.5 | 93 | – | –
18 | CC(NC(=O)[C@@H]1COc2cc(C(F)(F)F)ccc2O1)c1ccc2[nH]ncc2c1 (stereo partly drawn) [Compound 14, (S)-6-Trifluoromethyl-2,3-dihydro-benzo[1,4]dioxine-2-carboxylic acid [1-(1H-indazol-5-yl)-ethyl]-amide] | – | 820 | – | 54
